Measured values: publication PMC4019984, “Kinase and channel activity of TRPM6 are co-ordinated by a dimerization motif and pocket interaction” (Biochemical Journal, 2014)

Key:
Assay type in all cases: binding, human
[1] = tested on: GST-tagged TRPM6-(1730–end) A1836N; experiment: Peptide pull-down, A1836N mutant; settings: HEK-293 lysate, 3 μg peptide, 4°C, anti-GST immunoblot
Experimental: (§1) The peptides biotin-C6-[…]-TIPFTPVQLFAGEEITV (wild-type) and biotin-C6-LKSPQE-[…] (mutant) were purchased from GL Biochem. For a peptide pull-down, 1–5 mg of lysate was incubated with 3 μg of the respective peptide for 10 min at 4°C under gentle agitation, followed by 5 min of incubation with 10–20 μl of streptavidin beads at 4°C. The immunoprecipitates were washed three times with lysis buffer containing 0.15 M NaCl and then twice with buffer A. Proteins were eluted by resuspending washed immunoprecipitates in 30 μl of SDS sample buffer. […]
(§2) Figure 3 Analysis of the dimerization pocket residues (A) Structural model of TRPM6 based on TRPM7 α-kinase depicting the binding of Leu^1718 and Leu^1721 to other residues in the α-kinase domain. […] The samples were analysed by immunoblotting with anti-GST antibody (top panel). […] (C) Fluorescence polarization analysis of the dimerization motif peptide with E. coli purified GST-tagged TRPM6-(1730–end) and indicated mutants. […] Proteins were separated by SDS/PAGE, stained with Coomassie Blue (top and middle panels) and MBP phosphorylation was detected by autoradiography (bottom panel). […] Proteins were separated by SDS/PAGE, stained with Coomassie Blue (top and middle gels) and MBP phosphorylation was detected by autoradiography (bottom gel). […]

[2] = tested on: GST-tagged TRPM6-(1730–end) L1919Q; experiment: Peptide pull-down, L1919Q mutant; settings: HEK-293 lysate, 3 μg peptide, 4°C, anti-GST immunoblot
Experimental: as §1, §2

[3] = tested on: full-length FLAG-tagged wild-type TRPM6; experiment: Peptide pull-down, full-length wild-type TRPM6; settings: full-length wild-type TRPM6, HEK-293 lysate, 3 μg peptide, 4°C; anti-FLAG immunoblot
Experimental: (§3) The peptides biotin-C6-[…]-TIPFTPVQLFAGEEITV (wild-type) and biotin-C6-LKSPQE-[…] (mutant) were purchased from GL Biochem. For a peptide pull-down, 1–5 mg of lysate was incubated with 3 μg of the respective peptide for 10 min at 4°C under gentle agitation, followed by 5 min of incubation with 10–20 μl of streptavidin beads at 4°C. The immunoprecipitates were washed three times with lysis buffer containing 0.15 M NaCl and then twice with buffer A. Proteins were eluted by resuspending washed immunoprecipitates in 30 μl of SDS sample buffer.
(§4) Figure 2 Identification of dimerization motif residues in TRPM6 (A) Structural model of TRPM7 α-kinase depicting the N-terminal non-catalytic α-helix of one monomer that interacts with the kinase segment of the other monomer. (B) Fluorescence polarization analysis of wild-type (WT) and mutant (Mut) dimerization motif peptides with E. coli-purified GST-tagged TRPM6-(1730–end). […] The samples were analysed by immunoblotting with anti-GST antibody (top panel). […] Proteins were separated by SDS/PAGE, stained with Coomassie Blue (top and middle gels) and MBP phosphorylation was detected by autoradiography (bottom gel). […] Proteins were separated by SDS/PAGE, stained with Coomassie Blue (top and middle gels) and MBP phosphorylation was detected by autoradiography (bottom gel). […] The pull-down samples were analysed by immunoblotting with anti-FLAG antibody (top panel). […]

[4] = tested on: full-length FLAG-tagged kinase-inactive TRPM6; experiment: Peptide pull-down, full-length kinase-inactive TRPM6; settings: full-length kinase-inactive TRPM6, HEK-293 lysate, 3 μg peptide, 4°C; anti-FLAG immunoblot
Experimental: as §3, §4

[5] = tested on: full-length TRPM6 L1718A+L1721A; experiment: Peptide pull-down, full-length TRPM6 L1718A+L1721A; settings: full-length L1718A+L1721A TRPM6, HEK-293 lysate, 3 μg peptide, 4°C; anti-FLAG immunoblot
Experimental: as §3, §4

Substance: biotin-C6-LKSPQEPHHHYSAIERNNLMRLSQ-TIPFTPVQLFAGEEITV [biotinylated dimerization motif peptide, biotin-C6 wild-type dimerization motif peptide; conjugated to streptavidin–Sepharose]
- binding to biotinylated dimerization motif peptide (pull-down) [1]: abolished binding to the peptide
- binding to biotinylated dimerization motif peptide (pull-down) [2]: abolished binding to the peptide
- interaction with biotinylated dimerization motif peptide (pull-down) [3]: do not interact
- interaction with biotinylated dimerization motif peptide (pull-down) [4]: do not interact
- interaction with biotinylated dimerization motif peptide (pull-down) [5]: rendered capable of interacting
